According to patent publication US9108944B2, “Androgen receptor modulators and uses thereof” (ARAGON PHARMACEUTICALS, INC., priority 2010, dated 2015):

Tests used:
AR-VP16 [1] = molecular target: T1, AR-VP16 (Homo sapiens, UniProt P10275); experiment: AR-VP16 DNA Binding Assay, antagonist mode (HepG2 cells, 0.1 nM R1881); type: cell-based
T1 sequence (P10275 560-920 limits assumed): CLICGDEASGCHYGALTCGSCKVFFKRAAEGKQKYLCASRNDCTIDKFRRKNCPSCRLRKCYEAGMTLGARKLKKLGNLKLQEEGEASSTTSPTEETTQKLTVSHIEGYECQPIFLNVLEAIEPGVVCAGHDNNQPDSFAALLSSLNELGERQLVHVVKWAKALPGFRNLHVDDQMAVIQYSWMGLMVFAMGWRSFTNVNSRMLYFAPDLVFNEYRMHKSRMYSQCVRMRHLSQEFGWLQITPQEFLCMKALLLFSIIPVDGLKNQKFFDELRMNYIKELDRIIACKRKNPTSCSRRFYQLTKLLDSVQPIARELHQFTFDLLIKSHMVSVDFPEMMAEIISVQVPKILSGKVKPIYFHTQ
How it was run: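 Transfected HepG2 cells expressing AR-VP16 received serially diluted compound in charcoal-stripped-serum RPMI the day after transfection, with 0.1 nM R1881 (final) added only for antagonist testing. After 48 h, cells were lysed for measurement.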

AR-VP16 [2] = molecular target: T1, AR-VP16; experiment: AR-VP16 DNA Binding Assay, agonist mode (HepG2 cells); type: cell-based; conditions: Emax >20x DMSO control = agonist

CC(C)C(=O)N1CCC(Oc2ccc(N3C(=S)N(c4cnc(C#N)c(C(F)(F)F)c4)C(=O)C34CCC4)cc2)CC1 [Compound 213, 5-(5-(4-((1-isobutyrylpiperidin-4-yl)oxy)phenyl)-8-oxo-6-thioxo-5,7-diazaspiro[3.4]octan-7-yl)-3-(trifluoromethyl)picolinonitrile]
IC50 (AR-VP16 [1]): < 1 µM | ARVP16 DNA Binding Assay (Agonist mode): Agonist? (AR-VP16 [2]): Yes (Agonist defined as a compound whose Emax in the ARVP16 DNA Binding Assay (Agonist mode) is >20x DMSO control)

N#Cc1ncc(N2C(=O)C3(CCC3)N(c3ccc(C(=O)NCCCN4CCCC4=O)c(F)c3)C2=S)cc1C(F)(F)F [Compound 308, 4-(7-(6-Cyano-5-(trifluoromethyl)pyridin-3-yl)-8-oxo-6-thioxo-5,7-diazaspiro[3.4]octan-5-yl)-2-fluoro-N-(3-(2-oxopyrrolidin-1-yl)propyl)benzamide]
IC50 (AR-VP16 [1]): < 1 µM | ARVP16 DNA Binding Assay (Agonist mode): Agonist? (AR-VP16 [2]): No (Agonist defined as a compound whose Emax in the ARVP16 DNA Binding Assay (Agonist mode) is >20x DMSO control)

Cc1cc(N2C(=O)C(C)(C)N(c3ccc(O)cc3)C2=S)cnc1C#N [Compound 101, 5-(3-(4-Hydroxyphenyl)-4,4-dimethyl-5-oxo-2-thioxoimidazolidin-1-yl)-3-methylpicolinonitrile]
IC50 (AR-VP16 [1]): > 1 µM | ARVP16 DNA Binding Assay (Agonist mode): Agonist? (AR-VP16 [2]): No (Agonist defined as a compound whose Emax in the ARVP16 DNA Binding Assay (Agonist mode) is >20x DMSO control)

CC(C)CNC(=O)c1ccc(N2C(=S)N(c3cnc(C#N)c(C(F)(F)F)c3)C(=O)C23CCC3)cc1F [Compound 280, 4-(7-(6-Cyano-5-(trifluoromethyl)pyridin-3-yl)-8-oxo-6-thioxo-5,7-diazaspiro[3.4]octan-5-yl)-2-fluoro-N-isobutylbenzamide]
IC50 (AR-VP16 [1]): < 1 µM | ARVP16 DNA Binding Assay (Agonist mode): Agonist? (AR-VP16 [2]): No (Agonist defined as a compound whose Emax in the ARVP16 DNA Binding Assay (Agonist mode) is >20x DMSO control)

COC(=O)c1ccc(N2C(=S)N(c3cnc(C#N)c(C)c3)C(=O)C23CCC3)c(F)c1 [Compound 71, Methyl 4-(7-(6-cyano-5-methylpyridin-3-yl)-8-oxo-6-thioxo-5,7-diazaspiro[3.4]octan-5-yl)-3-fluorobenzoate]
IC50 (AR-VP16 [1]): > 1 µM | ARVP16 DNA Binding Assay (Agonist mode): Agonist? (AR-VP16 [2]): No (Agonist defined as a compound whose Emax in the ARVP16 DNA Binding Assay (Agonist mode) is >20x DMSO control)

COCCOc1ccc(N2C(=S)N(c3cnc(C#N)c(C)c3)C(=O)C23CCC3)cc1F [Compound 168, 5-(5-(3-Fluoro-4-(2-methoxyethoxy)phenyl)-8-oxo-6-thioxo-5,7-diazaspiro[3.4]octan-7-yl)-3-methylpicolinonitrile]
IC50 (AR-VP16 [1]): < 1 µM | ARVP16 DNA Binding Assay (Agonist mode): Agonist? (AR-VP16 [2]): No (Agonist defined as a compound whose Emax in the ARVP16 DNA Binding Assay (Agonist mode) is >20x DMSO control)

N#Cc1ncc(N2C(=O)C3(CCC3)N(c3ccc4cn[nH]c4c3)C2=S)cc1C(F)(F)F [Compound 88, 5-(5-(1H-Indazol-6-yl)-8-oxo-6-thioxo-5,7-diazaspiro[3.4]octan-7-yl)-3-(trifluoromethyl)picolinonitrile]
IC50 (AR-VP16 [1]): < 1 µM | ARVP16 DNA Binding Assay (Agonist mode): Agonist? (AR-VP16 [2]): No (Agonist defined as a compound whose Emax in the ARVP16 DNA Binding Assay (Agonist mode) is >20x DMSO control)

COc1cc(N2C(=S)N(c3cnc(C#N)c(C(F)(F)F)c3)C(=O)C23CCC3)ccc1F [Compound 32, 5-(5-(4-fluoro-3-methoxyphenyl)-8-oxo-6-thioxo-5,7-diazaspiro[3.4]octan-7-yl)-3-(trifluoromethyl)picolinonitrile]
IC50 (AR-VP16 [1]): < 1 µM | ARVP16 DNA Binding Assay (Agonist mode): Agonist? (AR-VP16 [2]): No (Agonist defined as a compound whose Emax in the ARVP16 DNA Binding Assay (Agonist mode) is >20x DMSO control)

N#Cc1ncc(N2C(=O)C3(CCC3)N(c3ccc(C(=O)NCc4ccc(Cl)cc4)c(F)c3)C2=S)cc1C(F)(F)F [Compound 289, N-(4-Chlorobenzyl)-4-(7-(6-cyano-5-(trifluoromethyl)pyridin-3-yl)-8-oxo-6-thioxo-5,7-diazaspiro[3.4]octan-5-yl)-2-fluorobenzamide]
IC50 (AR-VP16 [1]): < 1 µM | ARVP16 DNA Binding Assay (Agonist mode): Agonist? (AR-VP16 [2]): No (Agonist defined as a compound whose Emax in the ARVP16 DNA Binding Assay (Agonist mode) is >20x DMSO control)

CNC(=O)c1ccc(N2C(=S)N(c3cnc(C#N)c(C(F)F)c3)C(=O)C23CCC3)cc1F [Compound 113, 4-(7-(6-Cyano-5-(difluoromethyl)pyridin-3-yl)-8-oxo-6-thioxo-5,7-diazaspiro[3.4]octan-5-yl)-2-fluoro-N-methylbenzamide]
IC50 (AR-VP16 [1]): < 1 µM | ARVP16 DNA Binding Assay (Agonist mode): Agonist? (AR-VP16 [2]): No (Agonist defined as a compound whose Emax in the ARVP16 DNA Binding Assay (Agonist mode) is >20x DMSO control)

N#Cc1ncc(N2C(=O)C3(CCC3)N(c3ccc(C(=O)NCCc4cccnc4)c(F)c3)C2=S)cc1C(F)(F)F [Compound 244, 4-(7-(6-Cyano-5-(trifluoromethyl)pyridin-3-yl)-8-oxo-6-thioxo-5,7-diazaspiro[3.4]octan-5-yl)-2-fluoro-N-(2-(pyridin-3-yl)ethyl)benzamide]
IC50 (AR-VP16 [1]): < 1 µM | ARVP16 DNA Binding Assay (Agonist mode): Agonist? (AR-VP16 [2]): No (Agonist defined as a compound whose Emax in the ARVP16 DNA Binding Assay (Agonist mode) is >20x DMSO control)

CS(=O)(=O)N1CCC(Oc2ccc(N3C(=S)N(c4cnc(C#N)c(C(F)(F)F)c4)C(=O)C34CCC4)cc2)CC1 [Compound 219, 5-(5-(4-((1-(methylsulfonyl)piperidin-4-yl)oxy)phenyl)-8-oxo-6-thioxo-5,7-diazaspiro[3.4]octan-7-yl)-3-(trifluoromethyl)picolinonitrile]
IC50 (AR-VP16 [1]): < 1 µM | ARVP16 DNA Binding Assay (Agonist mode): Agonist? (AR-VP16 [2]): Yes (Agonist defined as a compound whose Emax in the ARVP16 DNA Binding Assay (Agonist mode) is >20x DMSO control)

N#Cc1ncc(N2C(=O)C3(CCC3)N(c3ccc(C(=O)NCCc4ccccn4)c(F)c3)C2=S)cc1C(F)(F)F [Compound 236, 4-(7-(6-Cyano-5-(trifluoromethyl)pyridin-3-yl)-8-oxo-6-thioxo-5,7-diazaspiro[3.4]octan-5-yl)-2-fluoro-N-(2-(pyridin-2-yl)ethyl)benzamide]
IC50 (AR-VP16 [1]): < 1 µM | ARVP16 DNA Binding Assay (Agonist mode): Agonist? (AR-VP16 [2]): No (Agonist defined as a compound whose Emax in the ARVP16 DNA Binding Assay (Agonist mode) is >20x DMSO control)

N#Cc1ncc(N2C(=O)C3(CCC3)N(c3ccc(CCCC(=O)Nc4ccccc4)cc3)C2=S)cc1C(F)(F)F [Compound 292, 4-(4-(7-(6-Cyano-5-(trifluoromethyl)pyridin-3-yl)-8-oxo-6-thioxo-5,7-diazaspiro[3.4]octan-5-yl)phenyl)-N-phenylbutanamide]
IC50 (AR-VP16 [1]): > 1 µM | ARVP16 DNA Binding Assay (Agonist mode): Agonist? (AR-VP16 [2]): No (Agonist defined as a compound whose Emax in the ARVP16 DNA Binding Assay (Agonist mode) is >20x DMSO control)

N#Cc1ncc(N2C(=O)C3(CCC3)N(c3ccc(OCCC4CCOCC4)c(F)c3)C2=S)cc1C(F)(F)F [Compound 180, 5-(5-(3-Fluoro-4-(2-(tetrahydro-2H-pyran-4-yl)ethoxy)phenyl)-8-oxo-6-thioxo-5,7-diazaspiro[3.4]octan-7-yl)-3-(trifluoromethyl)picolinonitrile]
IC50 (AR-VP16 [1]): < 1 µM | ARVP16 DNA Binding Assay (Agonist mode): Agonist? (AR-VP16 [2]): Yes (Agonist defined as a compound whose Emax in the ARVP16 DNA Binding Assay (Agonist mode) is >20x DMSO control)

N#Cc1ncc(N2C(=O)C3(CCC3)N(c3ccc(C(=O)Nc4cccnc4)c(F)c3)C2=S)cc1C(F)(F)F [Compound 262, 4-(7-(6-Cyano-5-(trifluoromethyl)pyridin-3-yl)-8-oxo-6-thioxo-5,7-diazaspiro[3.4]octan-5-yl)-2-fluoro-N-(pyridin-3-yl)benzamide]
IC50 (AR-VP16 [1]): < 1 µM | ARVP16 DNA Binding Assay (Agonist mode): Agonist? (AR-VP16 [2]): No (Agonist defined as a compound whose Emax in the ARVP16 DNA Binding Assay (Agonist mode) is >20x DMSO control)

CNC(=O)c1ccc(N2C(=S)N(c3cnc(C#N)c(OC)c3)C(=O)C23CCC3)cc1F [Compound 60, 4-(7-(6-Cyano-5-methoxypyridin-3-yl)-8-oxo-6-thioxo-5,7-diazaspiro[3.4]octan-5-yl)-2-fluoro-N-methylbenzamide]
IC50 (AR-VP16 [1]): < 1 µM | ARVP16 DNA Binding Assay (Agonist mode): Agonist? (AR-VP16 [2]): Yes (Agonist defined as a compound whose Emax in the ARVP16 DNA Binding Assay (Agonist mode) is >20x DMSO control)

N#Cc1ncc(N2C(=O)C3(CCC3)N(c3ccc(OCCn4cccc4)c(F)c3)C2=S)cc1C(F)(F)F [Compound 146, 5-(5-(4-(2-(1H-Pyrrol-1-yl)ethoxy)-3-fluorophenyl)-8-oxo-6-thioxo-5,7-diazaspiro[3.4]octan-7-yl)-3-(trifluoromethyl)picolinonitrile]
IC50 (AR-VP16 [1]): < 1 µM | ARVP16 DNA Binding Assay (Agonist mode): Agonist? (AR-VP16 [2]): No (Agonist defined as a compound whose Emax in the ARVP16 DNA Binding Assay (Agonist mode) is >20x DMSO control)

N#Cc1ncc(N2C(=O)C3(CCC3)N(c3ccc(S(N)(=O)=O)cc3)C2=S)cc1C(F)(F)F [Compound 81, 4-(7-(6-cyano-5-(trifluoromethyl)pyridin-3-yl)-8-oxo-6-thioxo-5,7-diazaspiro-[3.4]octan-5-yl)benzenesulfonamide]
IC50 (AR-VP16 [1]): > 1 µM | ARVP16 DNA Binding Assay (Agonist mode): Agonist? (AR-VP16 [2]): No (Agonist defined as a compound whose Emax in the ARVP16 DNA Binding Assay (Agonist mode) is >20x DMSO control)

CN1CCC(Oc2ccc(N3C(=S)N(c4cnc(C#N)c(C(F)(F)F)c4)C(=O)C34CCC4)c(F)c2)CC1 [Compound 190, 5-(5-(2-Fluoro-4-((1-methylpiperidin-4-yl)oxy)phenyl)-8-oxo-6-thioxo-5,7-diazaspiro[3.4]octan-7-yl)-3-(trifluoromethyl)picolinonitrile]
IC50 (AR-VP16 [1]): < 1 µM | ARVP16 DNA Binding Assay (Agonist mode): Agonist? (AR-VP16 [2]): No (Agonist defined as a compound whose Emax in the ARVP16 DNA Binding Assay (Agonist mode) is >20x DMSO control)
